Reference: patent US8153785B2, “Stabilizing ligands for regulation of protein function” (Cheminpharma LLC, priority 2009, dated 2012)

target: T1, L106-tsLuc (FKBP L106P destabilizing domain fused to luciferase) in HCT116 cells (Homo sapiens, UniProt P62942, F37V); experiment: Luciferase stabilization assay in HCT116 cells stably transfected with L106-tsLuc; type: cell-based; conditions: 24 hour incubation, 3-fold dilutions, 10 μM to 12 nM, BrightGlo readout, read-out: luciferase activity, expressed in IC50 values
T1 construct: expressed in transfected cells; host or cells: HCT116
T1 sequence (P62942 with tags, fused parts or gaps F37V limits assumed): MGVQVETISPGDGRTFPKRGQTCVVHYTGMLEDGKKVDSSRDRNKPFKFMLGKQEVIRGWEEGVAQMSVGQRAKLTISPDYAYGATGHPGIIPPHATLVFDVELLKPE
Description: The compounds were assayed for their ability to bind to the destabilizing domain of the protein according the following procedure:
HCT116 cells stably transfected with L106-tsLuc were cultured in DMEM media containing 10% fetal bovine serum. 7,000 cells/well were seeded in 100 μL of DMEM/10% FBS media in a 96-well plate and incubated overnight at 37° C. in a humidified, 5% CO2 incubator. Media was replaced with fresh 100 μL of fresh DMEM/10% FBS media containing various concentrations of Shield-1, and the compounds of Example 6 (Ic), and Example 9 (Id) Compounds were added at 3-fold dilutions, concentrations ranging from 10 μM to 12 nM. After 24 hour incubation with the compounds at 37° C. in a humidified, 5% CO2 incubator, luciferase activity was measured in a luminometer after the addition of 100 μL/well BrightGlo reagent (Promega).

For `CC[C@H](C(=O)N1CCCC[C@H]1C(=O)N[C@H](CCc1ccc(OC)c(OC)c1)c1cccc(OCCN2CCOCC2)c1)c1cc(OC)c(OC)c(OC)c1` [Example 6 (Ic)], which IC50 is on record?
Its IC50 is < 100 nM.

Which IC50 does the source give for `CCN(C(=O)N1CCCC[C@H]1C(=O)N[C@H](CCc1ccc(OC)c(OC)c1)c1cccc(OCCN2CCOCC2)c1)c1ccccc1` [Example 9 (Id)] here?
Its IC50 is < 10000 nM.

For `CC[C@H](C(=O)N1CCCC[C@H]1C(=O)OC(CCc1ccc(OC)c(OC)c1)c1cccc(OCCN2CCOCC2)c1)c1cc(OC)c(OC)c(OC)c1` (stereo partly drawn) [Shield-1, reference compound], which IC50 is on record?
The IC50 was < 10 nM.
